Experiments:
human DGKα [1] = molecular target: T1, human DGKα (Homo sapiens (Human), UniProt P23743); test: biochemical; conditions: detergent/lipid micelle substrate; read-out: DGKα IC50
In short: (§1)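 Enzymes were baculovirus/Sf9 full-length human DGKα or DGKζ with His tag. The substrate was PS/DAG in octyl glucoside micelles, in MOPS pH 7.5 buffer with NaCl, MgCl2, CaCl2 and DTT.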

human DGKζ [2] = molecular target: T2, human DGKζ (Homo sapiens (Human), UniProt Q13574); test: DGKζ assay (detergent/lipid micelle substrate); format: biochemical; conditions: detergent/lipid micelle substrate; read-out: DGKζ IC50
T2 sequence (Q13574 other isoform, or with tags, fused parts or gaps): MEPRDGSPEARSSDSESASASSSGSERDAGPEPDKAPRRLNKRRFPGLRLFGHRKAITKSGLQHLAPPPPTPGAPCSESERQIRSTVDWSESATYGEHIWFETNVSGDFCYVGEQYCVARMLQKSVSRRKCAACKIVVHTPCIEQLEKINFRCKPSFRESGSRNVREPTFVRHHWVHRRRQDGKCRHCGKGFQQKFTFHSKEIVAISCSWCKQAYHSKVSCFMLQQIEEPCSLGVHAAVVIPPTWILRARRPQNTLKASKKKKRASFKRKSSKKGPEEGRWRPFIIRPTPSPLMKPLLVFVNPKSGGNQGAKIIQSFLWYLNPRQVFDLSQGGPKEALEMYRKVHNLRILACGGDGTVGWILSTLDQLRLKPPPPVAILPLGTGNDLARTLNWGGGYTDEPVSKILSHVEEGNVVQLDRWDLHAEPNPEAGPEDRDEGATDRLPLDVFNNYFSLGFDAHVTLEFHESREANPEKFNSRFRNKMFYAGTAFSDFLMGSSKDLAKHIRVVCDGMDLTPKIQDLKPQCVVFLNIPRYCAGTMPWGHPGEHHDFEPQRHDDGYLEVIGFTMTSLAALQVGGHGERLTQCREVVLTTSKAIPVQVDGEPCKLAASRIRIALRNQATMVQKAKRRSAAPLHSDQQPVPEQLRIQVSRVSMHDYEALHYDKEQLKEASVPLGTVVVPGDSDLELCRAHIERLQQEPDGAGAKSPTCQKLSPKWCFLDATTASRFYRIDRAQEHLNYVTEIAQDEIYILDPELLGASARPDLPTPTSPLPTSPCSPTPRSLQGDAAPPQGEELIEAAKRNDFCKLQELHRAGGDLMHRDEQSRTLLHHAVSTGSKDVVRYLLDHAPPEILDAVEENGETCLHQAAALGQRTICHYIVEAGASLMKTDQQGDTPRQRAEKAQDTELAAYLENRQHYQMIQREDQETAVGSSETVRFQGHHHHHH
In short: as §1

[3] = tested on: pre-activated CD4 T cells and Raji cells; test: Raji CD4 T Cell IL2 Assay; format: cell-based; conditions: Homo sapiens, Raji
human DGKζ [4] = molecular target: T2, human DGKζ; test: DGKζ LIPGLO assay (extruded liposome substrate); format: biochemical; conditions: extruded liposome substrate; read-out: DGKζ LIPGLO IC50
In short: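 Recombinant DGKζ (Sf9-expressed, Ni/SEC/SP-purified) preincubated 10 min with extruded 100 nm PC/DAG/PS liposomes in 50 mM MOPS pH 7.5, 100 mM NaCl, 10 mM MgCl2, 1 μM CaCl2, 1 mM DTT. Started with 300 uM ATP solution (stock, pre-addition); 1 hr reaction. ADP-Glo luminescence; IC50 from 11 concentrations.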

human DGKα [5] = molecular target: T1, human DGKα; test: DGKα LIPGLO assay (extruded liposome substrate); format: biochemical
In short: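 Human full-length DGKα, His-tagged and produced in Sf9 cells, assayed at 20 nM (4× stock) on extruded liposomes of PS, 0.25 mM DAG and 2.75 mM PC, preincubated 10 min. Reaction started with 300 μM ATP (stock) and ran 1 h in MOPS pH 7.5/MgCl2/CaCl2/DTT buffer.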

T1 sequence (P23743 other isoform, or with tags, fused parts or gaps): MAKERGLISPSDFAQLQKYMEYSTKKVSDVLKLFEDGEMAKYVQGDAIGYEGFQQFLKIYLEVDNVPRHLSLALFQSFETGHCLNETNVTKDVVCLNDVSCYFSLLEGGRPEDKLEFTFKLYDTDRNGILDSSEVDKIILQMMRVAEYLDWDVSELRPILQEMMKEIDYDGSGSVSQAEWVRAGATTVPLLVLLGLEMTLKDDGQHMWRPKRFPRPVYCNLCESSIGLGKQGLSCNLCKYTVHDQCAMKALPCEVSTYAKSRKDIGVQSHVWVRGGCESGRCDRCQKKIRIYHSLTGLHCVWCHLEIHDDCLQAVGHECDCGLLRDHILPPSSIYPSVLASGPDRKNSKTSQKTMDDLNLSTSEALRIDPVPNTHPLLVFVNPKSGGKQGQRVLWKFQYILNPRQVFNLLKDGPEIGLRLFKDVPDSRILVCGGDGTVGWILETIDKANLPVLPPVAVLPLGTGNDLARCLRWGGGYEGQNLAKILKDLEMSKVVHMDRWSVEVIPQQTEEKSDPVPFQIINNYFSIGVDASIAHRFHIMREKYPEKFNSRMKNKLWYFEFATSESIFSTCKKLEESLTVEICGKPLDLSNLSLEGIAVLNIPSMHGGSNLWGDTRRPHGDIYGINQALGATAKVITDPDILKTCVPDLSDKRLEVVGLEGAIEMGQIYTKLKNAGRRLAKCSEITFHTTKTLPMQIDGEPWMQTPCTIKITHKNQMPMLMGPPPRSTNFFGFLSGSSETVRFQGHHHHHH

| SMILES | IC50 (human DGKα [1]) | IC50 (human DGKζ [2]) | IC50 [3] | IC50 (human DGKζ [4]) | IC50 (human DGKα [5]) |
| --- | --- | --- | --- | --- | --- |
| C#CCn1c(=O)c(C#N)c(N2CCN(Cc3ccc(F)cc3O)CC2)c2nc(Br)ccc21 [Example 67, 6-bromo-4-(4-(4-fluoro-2-hydroxybenzyl)piperazin-1-yl)-2-oxo-1-(prop-2-yn-1-vi)-1,2-dihydro-1,5-naphthyridine-3-carbonitrile] | 130 nM | 13000 nM | 6.6 nM | 12000 nM | 4800 nM |
| C#CCn1c(=O)c([N+](=O)[O-])c(N2CCN(C(c3ccc(F)cc3)c3ccc(F)cc3)CC2)c2nc(C#N)ccc21 [Example 118, 8-(4-(bis(4-fluorophenyl)methyl)piperazin-1-yl)-7-nitro-6-oxo-5-(prop-2-yn-1-yl)-5,6-dihydro-1,5-naphthyridine-2-carbonitrile] | 4200 nM | 230 nM | 18 nM | 61 nM | 1300 nM |
| CC(c1ccc(F)cc1)N1CCN(c2c([N+](=O)[O-])c(=O)n(CC#N)c3ccc(C#N)nc23)CC1 (stereo not drawn) [Example 151, 5-(cyanomethyl)-8-(4-(1-(4-fluorophenyl)ethyl)piperazin-1-yl)-7-nitro-6-oxo-5,6-dihydro-1,5-naphthyridine-2-carbonitrile] | 38000 nM | 27000 nM | 880 nM | 3100 nM | 7300 nM |
| CC(c1ccc(F)cc1)N1CCN(c2c(C#N)c(=O)n(CC#N)c3ccc(Br)nc23)CC1 (stereo not drawn) [Example 154, 6-bromo-1-(cyanomethyl)-4-(4-(1-(4-fluorophenyl)ethyl)piperazin-1-yl)-2-oxo-1,2-dihydro-1,5-naphthyridine-3-carbonitrile] | 45000 nM | > 240000 nM | 880 nM | 72000 nM | 81000 nM |
| CCC(c1ccc(F)cc1)N1CCN(c2c(C#N)c(=O)n(CC#N)c3ccc(Br)nc23)CC1 (stereo not drawn) [Example 155, 6-bromo-1-(cyanomethyl)-4-(4-(1-(4-fluorophenyl)propyl)piperazin-1-yl)-2-oxo-1,2-dihydro-1,5-naphthyridine-3-carbonitrile] | 24000 nM | 230000 nM | 1600 nM | 63000 nM | 71000 nM |
| N#CCCCn1c(=O)c([N+](=O)[O-])c(N2CCN(C(c3ccccc3)c3ccccc3)CC2)c2ncccc21 [Example 183, 4-(4-(4-benzhydrylpiperazin-1-yl)-3-nitro-2-oxo-1,5-naphthyridin-1(2H)-yl)butanenitrile] | 52000 nM | > 240000 nM | 3200 nM | 21000 nM | > 240000 nM |
| Cn1c(=O)c(C#N)c(N2CCN(Cc3ccc(F)cc3O)CC2)c2nc(Br)ccc21 [Example 192, 6-bromo-4-(4-(4-fluoro-2-hydroxybenzyl)piperazin-1-yl)-1-methyl-2-oxo-1,2-dihydro-1,5-naphthyridine-3-carbonitrile] | 84 nM | > 240000 nM | 200 nM | 8100 nM | 48 nM |
| Cn1c(=O)c(C#N)c(N2CCN(Cc3ccc(F)cc3O)CC2)c2nc(Cl)ccc21 [Example 193, 6-chloro-4-(4-(4-fluoro-2-hydroxybenzyl)piperazin-1-yl)-1-methyl-2-oxo-1,2-dihydro-1,5-naphthyridine-3-carbonitrile] | 220 nM | > 240000 nM | 130 nM | 6500 nM | 89 nM |
| Cc1ccc2c(n1)c(N1CCN(Cc3ccc(F)cc3O)CC1)c(C#N)c(=O)n2C [Example 194, 4-(4-(4-fluoro-2-hydroxybenzyl)piperazin-1-yl)-1,6-dimethyl-2-oxo-1,2-dihydro-1,5-naphthyridine-3-carbonitrile] | 76 nM | 62000 nM | 440 nM | 8300 nM | 180 nM |
| C=CCOc1cc(F)ccc1C(C)N1CCN(c2c(C#N)c(=O)n(C)c3ccc(Cl)nc23)CC1 (stereo not drawn) [Example 195, 4-(4-(1-(2-(allyloxy)-4-fluorophenyl)ethyl)piperazin-1-yl)-6-chloro-1-methyl-2-oxo-1,2-dihydro-1,5-naphthyridine-3-carbonitrile] | 220 nM | > 240000 nM | 120 nM | 98000 nM | 1700 nM |
| Cn1c(=O)c(C#N)c(N2CCN(C(c3ccccc3)c3ccccc3)CC2)c2ncccc21 [Example 196, 4-(4-benzhydrylpiperazin-1-yl)-1-methyl-2-oxo-1,2-dihydro-1,5-naphthyridine-3-carbonitrile] | 4000 nM | > 240000 nM | 2100 nM | 43000 nM | 2700 nM |
| Cn1c(=O)c(C#N)c(N2CCN(Cc3cccc4c3NCC4)CC2)c2nc(Cl)ccc21 [Example 216, 6-chloro-4-(4-(indolin-7-ylmethyl)piperazin-1-yl)-1-methyl-2-oxo-1,2-dihydro-1,5-naphthyridine-3-carbonitrile] | 1400 nM | 54000 nM | 64 nM | 4800 nM | 1200 nM |
| Cn1c(=O)c(C#N)c(N2CCN(C(c3ccc(F)cc3)c3ccc(F)cc3)CC2)c2nc(C#N)ccc21 [Example 217, 8-(4-(bis(4-fluorophenyl)methyl)piperazin-1-yl)-5-methy-6-oxo-5,6-dihydro-1,5-naphthyridine-2,7-dicarbonitrile] | 2300 nM | 4500 nM | 67 nM | 1400 nM | 1300 nM |
| Cn1c(=O)c(C#N)c(N2CCN(C(c3ccc(F)cc3)c3ccc(F)cc3)CC2)c2nc(Cl)ccc21 [Example 218, 4-(4-(bis(4-fluorophenyl)methyl)piperazin-1-yl)-6-chloro-1-methyl-2-oxo-1,2-dihydro-1,5-naphthyridine-3-carbonitrile] | 690 nM | > 81000 nM | 93 nM | 5100 nM | 1500 nM |
| Cn1c(=O)c(C#N)c(N2CCN(Cc3cccc4ccccc34)CC2)c2nc(Cl)ccc21 [Example 221, 6-chloro-1-methyl-4-(4-(naphthalen-1-ylmethyl)piperazin-1-yl)-2-oxo-1,2-dihydro-1,5-naphthyridine-3-carbonitrile] | 740 nM | > 240000 nM | 330 nM | 18000 nM | 3400 nM |
| Cn1c(=O)c([N+](=O)[O-])c(N2CCN(C(c3ccccc3)c3ccccc3)CC2)c2nc(C#N)ccc21 [Example 223, 8-(4-benzhydrylpiperazin-1-yl)-5-methyl-7-nitro-6-oxo-5,6-dihydro-1,5-naphthyridine-2-carbonitrile] | 1900 nM | 3200 nM | 42 nM | 620 nM | 9900 nM |
| CCn1ccc2c(CN3CCN(c4c(C#N)c(=O)n(C)c5ccc(Br)nc45)CC3)cccc21 [Example 225, 6-bromo-4-(4-((1-ethyl-1H-indol-4-yl)methyl)piperazin-1-yl)-1-methyl-2-oxo-1,2-dihydro-1,5-naphthyridine-3-carbonitrile] | 390 nM | 14000 nM | 70 nM | 1300 nM | 820 nM |
| Cc1ccc2c(n1)c(N1CCN(C(c3ccc(F)cc3)c3ccc(F)cc3)CC1)c(C#N)c(=O)n2C [Example 226, 4-(4-(bis(4-fluorophenyl)methyl)piperazin-1-yl)-1,6-dimethyl-2-oxo-1,2-dihydro-1,5-naphthyridine-3-carbonitrile] | 1600 nM | 70000 nM | 84 nM | 10000 nM | 3900 nM |
